Laboratory results reported in article PMC10845205, “Discovery of novel antibacterial agent for the infected wound treatment: all-hydrocarbon stapling optimization of LL-37” (Theranostics, 2024).
≈ marks a conversion by molar mass, not a printed value. Where two headings read alike, the source gives them in different places. Positions of bridges follow the written chain, without caps; N, C: chain ends. Non-standard residues stand in square brackets, D forms with d. Residues, ends and D or L forms follow the SMILES beside them. R8 = C=CCCCCCC[C@@](C)(N)C(=O)O; S5 = C=CCCC[C@](C)(N)C(=O)O

Legend:
E. coli = system: E. coli
Method: (§1) According to the protocol of Clinical & Laboratory Standards Institute, the minimum inhibitory concentration (MIC) of the linear and stapled peptides against a panel of gram-positive and gram-negative bacteria was determined by the broth microdilution method. […]
(§2) Bacterial strains and culture
(§3) Bacterial type stains ATCC 25923 S. aureus, ATCC 12228 S. epidermidis, ATCC […]
(§4) aeruginosa and ATCC 13883 K. pneumoniae were obtained from Shanghai Bioresource Collection Center. The bacterial culture medium was purchased from Oxoid and autoclaved according to the instructions from manufacturer. The isolated strains were cultured in Mueller Hinton II broth and continuously shaken at 140 rpm for 18 hours to the middle of the exponential growth phase at 37 °C with an OD value of 0.4-0.5.
(§5) Bacterial suspensions with an OD value of 0.1, approximately […], were then diluted for further assays.
(§6) The minimal inhibition concentration (MIC) of the linear and stapled peptides was determined using the microbroth dilution method from the Clinical and Laboratory Standards Institute (CLSI)[2, 3]. Bacterial suspensions of 10 6 CFU/mL were prepared in MH-II broth and peptide solutions at varying concentrations were prepared in phosphate buffer saline (PBS). Then 50 μL peptide solution and 50 μL bacterial suspension were mixed in a 96 -well plate. Plates were incubated for 24 hours at 37 °C.
(§7) 10 μL AlamarBlue cell viability reagent (ThermoFisher Scientific, UK) was added to each well, then the plate was re -incubated for a further 2 hours at 37 °C. The MIC was recorded as the minimum concentration of peptides required to completely in hibit bacteria growth. For serum stability assessment, the peptide solutions were pre - incubated with 50% human serum for 4 h before the MIC determination. Experiments were performed in 3 independent measurements. […]

K. pneumoniae = system: K. pneumoniae
Method: as §1, §2, §3, §4, §5, §6, §7

P. aeruginosa = system: P. aeruginosa
Method: as §1, §2, §3, §4, §5, §6, §7

A. baumannii = system: A. baumannii
Method: as §1, §2, §3, §4, §5, §6, §7

E. faecalis = system: E. faecalis
Method: as §1, §2, §3, §4, §5, §6, §7

S. aureus = system: S. aureus
Method: as §1, §2, §3, §4, §5, §6, §7

S. epidermidis = system: S. epidermidis
Method: as §1, §2, §3, §4, §5, §6, §7

Serum stability assay = type: in vitro ADME, human; conditions: for metabolised at 1 h, 0.4 mg/mL: human serum in pH 7.4 PBS, 37 °C, RP-HPLC, read-out: fraction hydrolyzed within 1 h; for TD50 (time at which 50% of the peptide is degraded in the presence of serum): human serum, 2 mg/mL peptide in pH 7.4 PBS mixed with serum 1:4, 37 °C, up to 48 h, RP-HPLC UV 220 nm, 3 independent measurements
Description: Maintaining high stability and presenting high compatibility in the complex physiological environment are important criterions for the clinical translation of AMPs. […] The derivatives were mixed with human serum in pH 7.4 PBS, simulating the degradation process of peptides by proteases in vivo. The percentages of intact derivatives were monitored and determined with time according to the PR-HPLC. […]
Serum stability of the linear and stapled peptides was examined by RP -HPLC as previously described. 2 mg/mL peptide solution was prepared in pH 7.4 PBS and incubated with human serum (Gemini, USA) to the final volume ratio of 1:4 at 37 °C.
At various time intervals, 50 μL mixture was added to 50 μL ethanol to terminate the enzymatic hydrolysis. After centrifugation at 10,000 rpm for 10 minutes under 4 °C, […]
the supernatant was collected and analyzed by RP-HPLC, with a UV detector monitored at 220 nm. Record the peak area of the intact peptide and calculate the percentage of remaining peptide based on the integrated area as, Peptide remaining (%) = peak area of remaining peptide/peak area of intact peptide×100%. […]

## CC[C@H](C)[C@@H]1NC(=O)[C@H](CCCNC(=N)N)NC(=O)[C@H](CCC(N)=O)NC(=O)[C@H](C(C)C)NC(=O)[C@](C)(NC(=O)[C@H](CCCNC(=N)N)NC(=O)[C@H](CCCCN)NC(C)=O)CCCCCCC=CCCC[C@@](C)(C(=O)N[C@@H](CC(C)C)C(=O)N[C@@H](CCCNC(=N)N)C(N)=O)NC(=O)[C@H](CC(=O)O)NC(=O)[C@H](CCCCN)NC1=O [KR-12 (I3, F10)] (Ac-KR[R8]VQRIKD[S5]LR-NH2; staple 3-10)
E. coli; 24 h
  MIC E. coli: 64 µg/mL (≈ 38.9 µM)
K. pneumoniae; 24 h
  MIC K. pneumoniae: 64 µg/mL (≈ 38.9 µM)
P. aeruginosa; 24 h
  MIC P. aeruginosa: 128 µg/mL (≈ 77.8 µM)
A. baumannii; 24 h
  MIC A. baumannii: 32 µg/mL (≈ 19.5 µM)
E. faecalis; 24 h
  MIC E. faecalis: 256 µg/mL (≈ 156 µM)
S. aureus; 24 h
  MIC S. aureus: 64 µg/mL (≈ 38.9 µM)
S. epidermidis; 24 h
  MIC S. epidermidis: 256 µg/mL (≈ 156 µM)

## polymyxin b [PMB, reference compound]
E. coli; CLSI broth microdilution, MH-II broth, 24 h 37 °C, AlamarBlue, ATCC 25922, 3 independent measurements
  MIC E. coli: 4 µg/mL
K. pneumoniae; CLSI broth microdilution, MH-II broth, 24 h 37 °C, AlamarBlue, ATCC 13883, 3 independent measurements
  MIC K. pneumoniae: 16 µg/mL
P. aeruginosa; CLSI broth microdilution, MH-II broth, 24 h 37 °C, AlamarBlue, ATCC 27853, 3 independent measurements
  MIC P. aeruginosa: 8 µg/mL
A. baumannii; CLSI broth microdilution, MH-II broth, 24 h 37 °C, AlamarBlue, ATCC 19606, 3 independent measurements
  MIC A. baumannii: 4 µg/mL
E. faecalis; CLSI broth microdilution, MH-II broth, 24 h 37 °C, AlamarBlue, ATCC 29212, 3 independent measurements
  MIC E. faecalis: 256 µg/mL
S. aureus; CLSI broth microdilution, MH-II broth, 10^6 CFU/mL, 24 h 37 °C, AlamarBlue, ATCC 25923, 3 independent measurements
  MIC S. aureus: 64 µg/mL
S. epidermidis; CLSI broth microdilution, MH-II broth, 24 h 37 °C, AlamarBlue, ATCC 12228, 3 independent measurements
  MIC S. epidermidis: 128 µg/mL

## CC[C@H](C)[C@H](NC(=O)[C@H](CCCCN)NC(=O)[C@H](CCC(=O)O)NC(=O)[C@H](CCCCN)NC(=O)[C@H](CO)NC(=O)[C@H](CCCCN)NC(=O)[C@H](CCCNC(=N)N)NC(=O)[C@H](Cc1ccccc1)NC(=O)[C@H](Cc1ccccc1)NC(=O)[C@H](CC(=O)O)NC(=O)CNC(=O)[C@H](CC(C)C)NC(=O)[C@@H](N)CC(C)C)C(=O)NCC(=O)N[C@@H](CCCCN)C(=O)N[C@@H](CCC(=O)O)C(=O)N[C@@H](Cc1ccccc1)C(=O)N[C@@H](CCCCN)C(=O)N[C@@H](CCCNC(=N)N)C(=O)N[C@H](C(=O)N[C@H](C(=O)N[C@@H](CCC(N)=O)C(=O)N[C@@H](CCCNC(=N)N)C(=O)N[C@H](C(=O)N[C@@H](CCCCN)C(=O)N[C@@H](CC(=O)O)C(=O)N[C@@H](Cc1ccccc1)C(=O)N[C@@H](CC(C)C)C(=O)N[C@@H](CCCNC(=N)N)C(=O)N[C@@H](CC(N)=O)C(=O)N[C@@H](CC(C)C)C(=O)N[C@H](C(=O)N1CCC[C@H]1C(=O)N[C@@H](CCCNC(=N)N)C(=O)N[C@H](C(=O)N[C@@H](CCC(=O)O)C(=O)N[C@@H](CO)C(=O)O)[C@@H](C)O)C(C)C)[C@@H](C)CC)C(C)C)[C@@H](C)CC [LL-37]
Serum stability assay
  metabolised at 1 h, 0.4 mg/mL: > 50%
  TD50 (time at which 50% of the peptide is degraded in the presence of serum): 0.58 h

## CC[C@H](C)[C@@H]1NC(=O)[C@H](CCCNC(=N)N)NC(=O)[C@](C)(NC(=O)[C@@H](NC(=O)[C@@H](NC(=O)[C@H](CCCNC(=N)N)NC(=O)[C@H](CCCCN)NC(C)=O)[C@@H](C)CC)C(C)C)CCCCCCC=CCCC[C@@](C)(C(N)=O)NC(=O)[C@H](CC(C)C)NC(=O)[C@H](Cc2ccccc2)NC(=O)[C@H](CC(=O)O)NC(=O)[C@H](CCCCN)NC1=O [KR-12 (Q5, R12)] (Ac-KRIV[R8]RIKDFL[S5]-NH2; staple 5-12)
E. coli; 24 h
  MIC E. coli: 32 µg/mL (≈ 19.7 µM)
K. pneumoniae; 24 h
  MIC K. pneumoniae: 64 µg/mL (≈ 39.5 µM)
P. aeruginosa; 24 h
  MIC P. aeruginosa: 64 µg/mL (≈ 39.5 µM)
A. baumannii; 24 h
  MIC A. baumannii: 64 µg/mL (≈ 39.5 µM)
E. faecalis; 24 h
  MIC E. faecalis: 256 µg/mL (≈ 158 µM)
S. aureus; 24 h
  MIC S. aureus: 64 µg/mL (≈ 39.5 µM)
S. epidermidis; 24 h
  MIC S. epidermidis: > 256 µg/mL

## CC[C@H](C)[C@@H]1NC(=O)[C@H](CCCNC(=N)N)NC(=O)[C@](C)(NC(C)=O)CCCCCCC=CCCC[C@@](C)(C(=O)N[C@@H](CC(=O)O)C(=O)N[C@@H](Cc2ccccc2)C(=O)N[C@@H](CC(C)C)C(=O)N[C@@H](CCCNC(=N)N)C(N)=O)NC(=O)[C@H]([C@@H](C)CC)NC(=O)[C@H](CCCNC(=N)N)NC(=O)[C@H](CCC(N)=O)NC(=O)[C@H](C(C)C)NC1=O [KR-12 (K1, K8)] (Ac-[R8]RIVQRI[S5]DFLR-NH2; staple 1-8)
E. coli; 24 h
  MIC E. coli: >256 µg/mL
K. pneumoniae; 24 h
  MIC K. pneumoniae: > 256 µg/mL
P. aeruginosa; 24 h
  MIC P. aeruginosa: > 256 µg/mL
A. baumannii; 24 h
  MIC A. baumannii: > 256 µg/mL
E. faecalis; 24 h
  MIC E. faecalis: > 256 µg/mL
S. aureus; 24 h
  MIC S. aureus: > 256 µg/mL
S. epidermidis; 24 h
  MIC S. epidermidis: > 256 µg/mL

## CC[C@H](C)[C@@H]1NC(=O)[C@H](CCCNC(=N)N)NC(=O)[C@H](CCC(N)=O)NC(=O)[C@H](C(C)C)NC(=O)[C@H]([C@@H](C)CC)NC(=O)[C@](C)(NC(=O)[C@H](CCCCN)NC(C)=O)CCCCCCC=CCCC[C@@](C)(C(=O)N[C@@H](Cc2ccccc2)C(=O)N[C@@H](CC(C)C)C(=O)N[C@@H](CCCNC(=N)N)C(N)=O)NC(=O)[C@H](CCCCN)NC1=O [KR-12 (R2, D9)] (Ac-K[R8]IVQRIK[S5]FLR-NH2; staple 2-9)
E. coli; 24 h
  MIC E. coli: 128 µg/mL (≈ 78.3 µM)
K. pneumoniae; 24 h
  MIC K. pneumoniae: 128 µg/mL (≈ 78.3 µM)
P. aeruginosa; 24 h
  MIC P. aeruginosa: 256 µg/mL (≈ 157 µM)
A. baumannii; 24 h
  MIC A. baumannii: 128 µg/mL (≈ 78.3 µM)
E. faecalis; 24 h
  MIC E. faecalis: 256 µg/mL (≈ 157 µM)
S. aureus; 24 h
  MIC S. aureus: 256 µg/mL (≈ 157 µM)
S. epidermidis; 24 h
  MIC S. epidermidis: 64 µg/mL (≈ 39.2 µM)

## Ac-KRIVQRIKDFLR-NH2 [KR-12, reference compound]
E. coli; 24 h
  MIC E. coli: 128 µg/mL
K. pneumoniae; 24 h
  MIC K. pneumoniae: > 256 µg/mL
P. aeruginosa; 24 h
  MIC P. aeruginosa: 256 µg/mL
A. baumannii; 24 h
  MIC A. baumannii: > 256 µg/mL
E. faecalis; 24 h
  MIC E. faecalis: 128 µg/mL
S. aureus; 24 h
  MIC S. aureus: 32 µg/mL
S. epidermidis; 24 h
  MIC S. epidermidis: > 256 µg/mL
Serum stability assay
  metabolised at 1 h, 0.4 mg/mL: > 50%
  TD50 (time at which 50% of the peptide is degraded in the presence of serum): 0.78 h

## CC[C@H](C)[C@@H]1NC(=O)[C@H](CCCNC(=N)N)NC(=O)[C@H](CCC(N)=O)NC(=O)[C@](C)(NC(=O)[C@@H](NC(=O)[C@H](CCCNC(=N)N)NC(=O)[C@H](CCCCN)NC(C)=O)[C@@H](C)CC)CCCCCCC=CCCC[C@@](C)(C(=O)N[C@@H](CCCNC(=N)N)C(N)=O)NC(=O)[C@H](Cc2ccccc2)NC(=O)[C@H](CC(=O)O)NC(=O)[C@H](CCCCN)NC1=O [KR-12 (V4, L11)] (Ac-KRI[R8]QRIKDF[S5]R-NH2; staple 4-11)
E. coli; 24 h
  MIC E. coli: 128 µg/mL (≈ 75.6 µM)
K. pneumoniae; 24 h
  MIC K. pneumoniae: 128 µg/mL (≈ 75.6 µM)
P. aeruginosa; 24 h
  MIC P. aeruginosa: 128 µg/mL (≈ 75.6 µM)
A. baumannii; 24 h
  MIC A. baumannii: 128 µg/mL (≈ 75.6 µM)
E. faecalis; 24 h
  MIC E. faecalis: > 256 µg/mL
S. aureus; 24 h
  MIC S. aureus: 128 µg/mL (≈ 75.6 µM)
S. epidermidis; 24 h
  MIC S. epidermidis: 256 µg/mL (≈ 151 µM)
